molecular target: T1, Recombinant human TPH1 (MBP tagged) (Homo sapiens, UniProt P17752); assay: TPH1 in vitro inhibition assay (kinetic fluorescence); type: biochemical; settings: TPH1 Range (TPH1 inhibition IC50)
T1 construct: cloning full length human TPH1 cDNA in to a bacterial pMAL-c5E expression vector; made in house; host or cells: E. coli BL21 (DE3)
T1 sequence (P17752 1-444): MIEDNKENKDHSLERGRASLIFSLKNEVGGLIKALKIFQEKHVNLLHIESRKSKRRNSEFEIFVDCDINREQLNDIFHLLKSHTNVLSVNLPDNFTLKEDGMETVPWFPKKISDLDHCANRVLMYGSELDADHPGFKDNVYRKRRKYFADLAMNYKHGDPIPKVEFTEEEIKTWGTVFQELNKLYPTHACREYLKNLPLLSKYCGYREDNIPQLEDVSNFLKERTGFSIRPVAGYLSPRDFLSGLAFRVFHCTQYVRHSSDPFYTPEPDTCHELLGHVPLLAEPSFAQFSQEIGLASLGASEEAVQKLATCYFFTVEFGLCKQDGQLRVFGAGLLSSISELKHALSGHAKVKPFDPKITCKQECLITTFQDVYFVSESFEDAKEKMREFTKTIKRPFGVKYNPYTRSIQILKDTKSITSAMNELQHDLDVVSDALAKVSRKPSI
Procedure, shortened: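 Final mix: 15 nM MBP-TPH1, 30 μM Trp, 36 μM 6-methyltetrahydropterin, 25 μM ferrous ammonium sulfate, 50 mM MES pH 7.1, 1% DMSO, room temperature.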

Row | SMILES | IC50 [nM]
1 | Nc1nc(O[C@H](c2ccc(-c3ccc4c(c3)CCC(=O)N4)cc2)C(F)(F)F)cc(N2CCC3(CC2)CN[C@H](C(=O)O)C3)n1 [Example 55v, (S)-8-(2-amino-6-((R)-2,2,2-trifluoro-1-(4-(2-oxo-1,2,3,4-tetrahydroquinolin-6-yl)phenyl)ethoxy)pyrimidin-4-yl)-2,8-diazaspiro[4.5]decane-3-carboxylic acid] | < 50
2 | Nc1nc(O[C@H](c2ccc(Cl)cc2-c2cccc(N3CCCC3=O)c2)C(F)(F)F)cc(N2CCC3(CC2)CN[C@H](C(=O)O)C3)n1 [Example 34o, (S)-8-(2-amino-6-((R)-1-(5-chloro-3′-(2-oxopyrrolidin-1-yl)-[1,1′-biphenyl]-2-yl)-2,2,2-trifluoroethoxy)pyrimidin-4-yl)-2,8-diazaspiro[4.5]decane-3-carboxylic acid] | 50 to 300
3 | Cc1ccn(-c2cc(-c3ccc(C)c(C)c3)ccc2[C@H](Oc2cc(N3CCC4(CC3)CN[C@H](C(=O)O)C4)nc(N)n2)C(F)(F)F)n1 [Example 54k, (S)-8-(2-amino-6-((S)-1-(3′,4′-dimethyl-3-(3-methyl-1H-pyrazol-1-yl)-[1,1′-biphenyl]-4-yl)-2,2,2-trifluoroethoxy)pyrimidin-4-yl)-2,8-diazaspiro[4.5]decane-3-carboxylic acid] | 50 to 300

same assay, conditions: read-out: TPH1 Range (TPH1 inhibition IC50)

Row | SMILES | IC50 [nM]
4 | CCOc1cc(-c2ccc([C@@H](Oc3cc(N4CCC5(CC4)CN[C@H](C(=O)O)C5)nc(N)n3)C(F)(F)F)c(-n3ccc(C)n3)c2)ccc1F [Example 1bg, (S)-8-(2-amino-6-((R)-1-(3′-ethoxy-4′-fluoro-3-(3-methyl-1H-pyrazol-1-yl)-[1,1′-biphenyl]-4-yl)-2,2,2-trifluoroethoxy)pyrimidin-4-yl)-2,8-diazaspiro[4.5]decane-3-carboxylic acid] | < 50
5 | CCCOc1ccc(-c2ccc([C@@H](Oc3cc(N4CCC5(CC4)CN[C@H](C(=O)O)C5)nc(N)n3)C(F)(F)F)cc2)cc1 [Example 55dd, (S)-8-(2-amino-6-((R)-2,2,2-trifluoro-1-(4′-propoxy-[1,1′-biphenyl]-4-yl)ethoxy)pyrimidin-4-yl)-2,8-diazaspiro[4.5]decane-3-carboxylic acid] | 50 to 300
6 | Cc1cccc(-c2ccc([C@@H](Oc3cc(N4CCC5(CC4)CN[C@H](C(=O)O)C5)nc(N)n3)C(F)(F)F)cc2)c1C [Example 55cn, (S)-8-(2-amino-6-((R)-1-(2′,3′-dimethyl-[1,1′-biphenyl]-4-yl)-2,2,2-trifluoroethoxy)pyrimidin-4-yl)-2,8-diazaspiro[4.5]decane-3-carboxylic acid] | 300 to 3000
7 | Cc1ccn(-c2ccc(-c3ccccc3)cc2[C@@H](Oc2cc(N3CCC4(CC3)CN[C@H](C(=O)O)C4)nc(N)n2)C(F)(F)F)n1 [Example 19n, (S)-8-(2-amino-6-((R)-2,2,2-trifluoro-1-(4-(3-methyl-1H-pyrazol-1-yl)-[1,1′-biphenyl]-3-yl)ethoxy)pyrimidin-4-yl)-2,8-diazaspiro[4.5]decane-3-carboxylic acid] | < 50
8 | Nc1nc(O[C@H](c2ccc(-c3ccc4ncncc4c3)cc2)C(F)(F)F)cc(N2CCC3(CC2)CN[C@H](C(=O)O)C3)n1 [Example 55bk, (S)-8-(2-amino-6-((R)-2,2,2-trifluoro-1-(4-(quinazolin-6-yl)phenyl)ethoxy)pyrimidin-4-yl)-2,8-diazaspiro[4.5]decane-3-carboxylic acid] | 50 to 300
9 | CNC(=O)c1cccc(-c2cc(Cl)ccc2[C@@H](Oc2cc(N3CCC4(CC3)CN[C@H](C(=O)O)C4)nc(N)n2)C(F)(F)F)c1 [Example 34cm, (S)-8-(2-amino-6-((R)-1-(5-chloro-3′-(methylcarbamoyl)-[1,1′-biphenyl]-2-yl)-2,2,2-trifluoroethoxy)pyrimidin-4-yl)-2,8-diazaspiro[4.5]decane-3-carboxylic acid] | 50 to 300
10 | CCc1ccc([C@@H](Oc2cc(N3CCC4(CC3)CN[C@H](C(=O)O)C4)nc(N)n2)C(F)(F)F)c(-n2ccc(C)n2)c1 [Example 12a, (S)-8-(2-amino-6-((R)-1-(4-ethyl-2-(3-methyl-H-pyrazol-1-yl)phenyl)-2,2,2-trifluoroethoxy)pyrimidin-4-yl)-2,8-diazaspiro[4.5]decane-3-carboxylic acid] | 50 to 300
11 | Cc1ccc(-c2ccc([C@@H](Oc3cc(N4CCC5(CC4)CN[C@H](C(=O)O)C5)nc(N)n3)C(F)(F)F)cc2)cc1F [Example 55cu, (S)-8-(2-amino-6-((R)-2,2,2-trifluoro-1-(3′-fluoro-4′-methyl-[1,1′-biphenyl]-4-yl)ethoxy)pyrimidin-4-yl)-2,8-diazaspiro[4.5]decane-3-carboxylic acid] | 300 to 3000
12 | CC(C)(C)c1ccn(-c2cc(Cl)ccc2[C@@H](Oc2cc(N3CCC4(CC3)CN[C@H](C(=O)O)C4)nc(N)n2)C(F)(F)F)n1 [Example 10pa, (S)-8-(2-amino-6-((R)-1-(2-(3-(tert-butyl)-1H-pyrazol-1-yl)-4-chlorophenyl)-2,2,2-trifluoroethoxy)pyrimidin-4-yl)-2,8-diazaspiro[4.5]decane-3-carboxylic acid] | 50 to 300
13 | Cc1ccn(-c2ccc(C(=O)O)cc2[C@@H](Oc2cc(N3CCC4(CC3)CN[C@H](C(=O)O)C4)nc(N)n2)C(F)(F)F)n1 [Example 24, (S)-8-(2-Amino-6-((R)-1-(5-carboxy-2-(3-methyl-H-pyrazol-1-yl)phenyl)-2,2,2-trifluoroethoxy)pyrimidin-4-yl)-2,8-diazaspiro[4.5]decane-3-carboxylic acid] | 50 to 300
14 | CCOc1cccc(-c2cc(Cl)ccc2[C@@H](Oc2cc(N3CCC4(CC3)CN[C@H](C(=O)O)C4)nc(N)n2)C(F)(F)F)c1 [Example 34ah, (S)-8-(2-amino-6-((R)-1-(5-chloro-3′-ethoxy-[1,1′-biphenyl]-2-yl)-2,2,2-trifluoroethoxy)pyrimidin-4-yl)-2,8-diazaspiro[4.5]decane-3-carboxylic acid] | < 50
15 | CCOc1cccc(-c2ccc([C@@H](Oc3cc(N4CCC5(CC4)CN[C@H](C(=O)O)C5)nc(N)n3)C(F)(F)F)cc2)c1 [Example 55au, (S)-8-(2-amino-6-((R)-1-(3′-ethoxy-[1,1′-biphenyl]-4-yl)-2,2,2-trifluoroethoxy)pyrimidin-4-yl)-2,8-diazaspiro[4.5]decane-3-carboxylic acid] | 50 to 300
16 | Cc1ccn(-c2cc(-c3ccc4cccnc4c3)ccc2[C@@H](Oc2cc(N3CCC4(CC3)CN[C@H](C(=O)O)C4)nc(N)n2)C(F)(F)F)n1 [Example 1z, (S)-8-(2-amino-6-((R)-2,2,2-trifluoro-1-(2-(3-methyl-1H-pyrazol-1-yl)-4-(quinolin-7-yl)phenyl)ethoxy)pyrimidin-4-yl)-2,8-diazaspiro[4.5]decane-3-carboxylic acid] | < 50
17 | Cc1ccn(-c2cc(-c3ccc(OC(C)C)c(Cl)c3)ccc2[C@@H](Oc2cc(N3CCC4(CC3)CN[C@H](C(=O)O)C4)nc(N)n2)C(F)(F)F)n1 [Example 1bv, (S)-8-(2-amino-6-((R)-1-(3′-chloro-4′-isopropoxy-3-(3-methyl-1H-pyrazol-1-yl)-[1,1′-biphenyl]-4-yl)-2,2,2-trifluoroethoxy)pyrimidin-4-yl)-2,8-diazaspiro[4.5]decane-3-carboxylic acid] | < 50
18 | Nc1nc(NCC23CC4CC(CC(C4)C2)C3)cc(N2CCC3(CC2)CN[C@H](C(=O)O)C3)n1 [Example 41c, (3S)-8-(6-(((3S,5S)-adamantan-1-ylmethyl)amino)-2-aminopyrimidin-4-yl)-2,8-diazaspiro[4.5]decane-3-carboxylic acid] | 3000 to 10000
19 | Cc1ccn(-c2cc(C(=O)OC(C)(C)C)ccc2[C@@H](Oc2cc(N3CCC4(CC3)CN[C@H](C(=O)O)C4)nc(N)n2)C(F)(F)F)n1 [Example 18d, (S)-8-(2-amino-6-((R)-1-(4-(tert-butoxycarbonyl)-2-(3-methyl-1H-pyrazol-1-yl)phenyl)-2,2,2-trifluoroethoxy)pyrimidin-4-yl)-2,8-diazaspiro[4.5]decane-3-carboxylic acid] | < 50
20 | Nc1nc(O[C@H](c2ccc(Cl)cc2-c2ncccn2)C(F)(F)F)cc(N2CCC3(CC2)CN[C@H](C(=O)O)C3)n1 [Example 34ct, (S)-8-(2-amino-6-((R)-1-(4-chloro-2-(pyrimidin-2-yl)phenyl)-2,2,2-trifluoroethoxy)pyrimidin-4-yl)-2,8-diazaspiro[4.5]decane-3-carboxylic acid] | < 50
21 | COc1ccc(C)c(-c2ccc([C@@H](Oc3cc(N4CCC5(CC4)CN[C@H](C(=O)O)C5)nc(N)n3)C(F)(F)F)cc2)c1 [Example 55p, (S)-8-(2-amino-6-((R)-2,2,2-trifluoro-1-(5′-methoxy-2′-methyl-[1,1′-biphenyl]-4-yl)ethoxy)pyrimidin-4-yl)-2,8-diazaspiro[4.5]decane-3-carboxylic acid] | 50 to 300
22 | Cc1ccn(-c2cc(-c3ccc4ccccc4c3)ccc2[C@@H](Oc2cc(N3CCC4(CC3)CN[C@H](C(=O)O)C4)nc(N)n2)C(F)(F)F)n1 [Example 1bw, (S)-8-(2-amino-6-((R)-2,2,2-trifluoro-1-(2-(3-methyl-1H-pyrazol-1-yl)-4-(naphthalen-2-yl)phenyl)ethoxy)pyrimidin-4-yl)-2,8-diazaspiro[4.5]decane-3-carboxylic acid] | 50 to 300
